Earlier results in patent publication US5574044A, “Muscarine antagonists” (Merck & Co., Inc., priority 1994, dated 1996).

Tests used:
eye = settings: in vivo
pupil = settings: in vivo
[1] = in vivo
ciliary muscle = settings: in vivo
[2] = test system: smooth muscle (M3 type) receptor; settings: ordinarily called M3 type but variously called type M2 or M3

Row | SMILES | axial elongation / enlargement of the eye (eye) | pupil dilation (pupil) | sensitization assays [1] | action on the ciliary muscle / ocular focusing (ciliary muscle) | muscarinic selectivity and duration (muscarinic receptors) | selectivity for smooth muscle (M3 type) receptor [2]
1 | CN1CCN(CC(=O)N2c3ccccc3C(=O)Nc3cccnc32)CC1 [pirenzepine] | inhibits axial elongation | far less effective at pupil dilation than atropine | test positive in sensitization assays |  |  | 
2 | CN1CCc2cccc3c2[C@H]1Cc1ccc(O)c(O)c1-3 [apomorphine] | inhibit or actually prevent the axial enlargement of the eye |  |  |  |  | 
3 | CN1[C@@H]2CC[C@H]1C[C@@H](OC(=O)C(CO)c1ccccc1)C2 (stereo partly drawn) [atropine] |  | causes mydriases (increase of pupil size) | test positive in sensitization assays | its action on the ciliary muscle to inhibit ocular focusing impairs near visual work like reading | long-acting non-specific antimuscarinic agent | 
4 | C[N+]1(C)CCC(OC(=O)C(c2ccccc2)c2ccccc2)CC1 [Example 4-DAMP, 4-diphenylacetoxy-N-methylpiperadine methiodide] |  |  |  |  |  | relatively selective antagonist for smooth muscle
